Where two headings read alike, the source gives them in different places.
System: HBV
Assay: HBV replication inhibition assay (BDNA assay) in HepG2.2.15 cells
Type: cell-based
Settings: Hepatitis B virus, HepG2.2.15, 144 h, read-out: HepG2.2.15 EC50 HBV DNA
Description: HBV replication inhibition by the disclosed compounds were determined in cells infected or transfected with HBV or cells with stably integrated HBV, such as HepG2.2.15 cells (Sells et al. 1987). In this example, HepG2.2.15 cells were maintained in cell culture medium containing 10% fetal bovine serum (FBS), Geneticin, L-glutamine, penicillin and streptomycin. HepG2.2.15 cells were seeded in 96-well plates at a density of 40,000 cells/well and were treated with serially diluted compounds at a final DMSO concentration of 0.5% either alone or in combination by adding drugs in a checker box format. Cells were incubated with compounds for three days, after which medium was removed and fresh medium containing compounds was added to cells and incubated for another three days. At day 6, supernatant was removed and treated with DNase at 37° C. for 60 minutes, followed by enzyme inactivation at 75° C. for 15 minutes. Encapsidated HBV DNA was released from the virions and covalently linked HBV polymerase by incubating in lysis buffer (Affymetrix QS0010) containing 2.5 μg proteinase K at 50° C. for 40 minutes. HBV DNA was denatured by addition of 0.2 M NaOH and detected using a branched DNA (BDNA) QuantiGene assay kit according to manufacturer recommendation (Affymetrix). HBV DNA levels were also quantified using qPCR, based on amplification of encapsidated HBV DNA extraction with QuickExtraction Solution (Epicentre Biotechnologies) and amplification of HBV DNA using HBV specific PCR probes that can hybridize to HBV DNA and a fluorescently labeled probe for quantitation. In addition, cell viability of HepG2.2.15 cells incubated with test compounds alone or in combination was determined by using CellTitre-Glo reagent according to the manufacturer protocol (Promega). The mean background signal from wells containing only culture medium was subtracted from all other samples, and percent inhibition at each compound concentration was calculated by normalizing to signals from HepG2.2.15 cells treated with 0.5% DMSO using equation E1.
% inhibition=(DMSOave−Xi)/DMSOave×100% E1
where DMSOave is the mean signal calculated from the wells that were treated with DMSO control (0% inhibition control) and Xi is the signal measured from the individual wells. EC50 values, effective concentrations that achieved 50% inhibitory effect, were determined by non-linear fitting using Graphpad Prism software (San Diego, Calif.) and equation E2.
Y=Ymin+(Ymax−Ymin)/(1+10(Log EC50−X)×HillSlope) E2
where Y represents percent inhibition values and X represents the logarithm of compound concentrations.
Selected disclosed compounds were assayed in the HBV replication assay (BDNA assay), as described above, and a representative group of these active compounds is shown in Table 3.

[1] = HepG2.2.15 cells, BDNA assay, encapsidated HBV DNA in supernatant at day 6

Row | SMILES | EC50 [1] [nM] | EC50 [nM]
1 | N#Cc1cc(NC(=O)N2CCc3nn4c(c3C2)C(F)(F)CC[C@@H](O)C4)ccc1F [Example 8, (R)-N-(3-Cyano-4-fluorophenyl)-11,11-difluoro-8-hydroxy-3,4,8,9,10,11-hexahydro-1H-pyrido[4′,3′:3,4]pyrazolo[1,5-a]azepine-2(7H)-carboxamide] | 10 | 
2 | O=C(Nc1ccnc(Br)c1F)N1CCc2nn3c(c2C1)C(F)(F)CC[C@H](O)C3 [Example 5, (S)-N-(2-Bromo-3-fluoropyridin-4-yl)-11,11-difluoro-8-hydroxy-3,4,8,9,10,11-hexahydro-1H-pyrido[4′,3′:3,4]pyrazolo[1,5-a]azepine-2(7H)-carboxamide] | 57 | 
3 | C[C@@H]1Cc2nn3c(c2CN1C(=O)Nc1ccc(F)c(C#N)c1)C(F)(F)C[C@H](CO)CC3 [Example 131] | 3 | 
4 | C[C@@H]1Cc2nn3c(c2CN1C(=O)Nc1ccc(F)c(C#N)c1)C(F)(F)CC[C@@H](O)C3 [Example 67, (3R,8R)-N-(3-cyano-4-fluorophenyl)-11,11-difluoro-8-hydroxy-3-methyl-3,4,8,9,10,11-hexahydro-1H-pyrido[4′,3′:3,4]pyrazolo[1,5-a]azepine-2(7H)-carboxamide] | 4 | 
5 | O=C(Nc1ccc(F)c(Br)c1F)N1CCc2nn3c(c2C1)C(F)(F)CC[C@H](O)C3 [Example 7, (S)-N-(3-Bromo-2,4-difluorophenyl)-11,11-difluoro-8-hydroxy-3,4,8,9,10,11-hexahydro-1H-pyrido[4′,3′:3,4]pyrazolo[1,5-a]azepine-2(7H)-carboxamide] | 31 | 
6 | CC(=O)NCC1CCC(F)(F)c2c3c(nn2C1)CCN(C(=O)Nc1ccnc(Br)c1F)C3 (centres unmarked) [Example 50, 8-(Acetamidomethyl)-N-(2-bromo-3-fluoropyridin-4-yl)-11,11-difluoro-3,4,8,9,10,11-hexahydro-1H-pyrido[4′,3′:3,4]pyrazolo[1,5-a]azepine-2(7H)-carboxamide] | 110 | 
7 | C=CC1(O)CCC(F)(F)c2c3c(nn2C1)CCN(C(=O)Nc1ccc(F)c(C#N)c1)C3 (single isomer, unassigned) [Example 56, (R*)-N-(3-Cyano-4-fluorophenyl)-11,11-difluoro-8-hydroxy-8-vinyl-3,4,8,9,10,11-hexahydro-1H-pyrido[4′,3′:3,4]pyrazolo[1,5-a]azepine-2(7H)-carboxamide] | 16 | 
8 | O=C(Nc1ccc(F)c(C(F)(F)F)c1)N1CCc2nn3c(c2C1)C(F)(F)CC[C@H](O)C3 [Example 4, (S)-11,11-Difluoro-N-(4-fluoro-3-(trifluoromethyl)phenyl)-8-hydroxy-3,4,8,9,10,11-hexahydro-1H-pyrido[4′,3′:3,4]pyrazolo[1,5-a]azepine-2(7H)-carboxamide] | 37 | 
9 | O=C(Nc1ccnc(Br)c1F)N1CCc2nn3c(c2C1)C(F)(F)CCC(CNC(=O)C(F)(F)F)C3 (centres unmarked) [Example 52, N-(2-Bromo-3-fluoropyridin-4-yl)-11,11-difluoro-8-((2,2,2-trifluoroacetamido)methyl)-3,4,8,9,10,11-hexahydro-1H-pyrido[4′,3′:3,4]pyrazolo[1,5-a]azepine-2(7H)-carboxamide] |  | 102
10 | C#CC1(O)CCC(F)(F)c2c3c(nn2C1)CCN(C(=O)Nc1ccnc(Br)c1F)C3 (single isomer, unassigned) [Example 63, (R*)-N-(2-Bromo-3-fluoropyridin-4-yl)-8-ethynyl-11,11-difluoro-8-hydroxy-3,4,8,9,10,11-hexahydro-1H-pyrido[4′,3′:3,4]pyrazolo[1,5-a]azepine-2(7H)-carboxamide] | 119 | 
11 | N#Cc1cc(NC(=O)N2CCc3nn4c(c3C2)C(F)(F)CC[C@@H](OCC(F)F)C4)ccc1F [Example 14, (R)-N-(3-Cyano-4-fluorophenyl)-8-(2,2-difluoroethoxy)-11,11-difluoro-3,4,8,9,10,11-hexahydro-1H-pyrido[4′,3′:3,4]pyrazolo[1,5-a]azepine-2(7H)-carboxamide] | 51 | 
12 | N#Cc1c(F)ccc(NC(=O)N2CCc3nn4c(c3C2)C(F)(F)CC[C@H](O)C4)c1F [Example 6, (S)-N-(3-Cyano-2,4-difluorophenyl)-11,11-difluoro-8-hydroxy-3,4,8,9,10,11-hexahydro-1H-pyrido[4′,3′:3,4]pyrazolo[1,5-a]azepine-2(7H)-carboxamide] | 44 | 
13 | C[C@@]1(O)CCC(F)(F)c2c3c(nn2C1)CCN(C(=O)Nc1ccc(F)c(C#N)c1)C3 (stereo in doubt) [Example 55, N-(3-Cyano-4-fluorophenyl)-11,11-difluoro-8-hydroxy-8-methyl-3,4,8,9,10,11-hexahydro-1H-pyrido[4′,3′:3,4]pyrazolo[1,5-a]azepine-2(7H)-carboxamide] | 29 | 
14 | O=C(Nc1ccnc(Br)c1F)N1CCc2nn3c(c2C1)C(F)(F)CCC(O)(COCC(F)F)C3 (single isomer, unassigned) [Example 32, (R*)-N-(2-Bromo-3-fluoropyridin-4-yl)-8-((2,2-difluoroethoxy)methyl)-11,11-difluoro-8-hydroxy-3,4,8,9,10,11-hexahydro-1H-pyrido[4′,3′:3,4]pyrazolo[1,5-a]azepine-2(7H)-carboxamide] | 138 | 
15 | C=C1CCC(F)(F)c2c3c(nn2C1)CCN(C(=O)Nc1ccc(F)c(C#N)c1)C3 [Example 1, N-(3-Cyano-4-fluorophenyl)-11,11-difluoro-8-methylene-3,4,8,9,10,11-hexahydro-1H-pyrido[4′,3′:3,4]pyrazolo[1,5-a]azepine-2(7H)-carboxamide] | 44 | 
16 | C[C@@H]1Cc2nn3c(c2CN1C(=O)Nc1ccnc(Br)c1F)C(F)(F)CC(O)(CF)CC3 (single isomer, unassigned) [Example 127, (3R,9R*)-N-(2-Bromo-3-fluoropyridin-4-yl)-11,11-difluoro-9-(fluoromethyl)-9-hydroxy-3-methyl-3,4,8,9,10,11-hexahydro-1H-pyrido[4′,3′:3,4]pyrazolo[1,5-a]azepine-2(7H)-carboxamide] | 5 | 
17 | C[C@@H]1Cc2nn3c(c2CN1C(=O)Nc1ccnc(C(F)F)c1F)C(F)(F)CC[C@H](O)C3 [Example 74, (3R,8S)-N-(2-(Difluoromethyl)-3-fluoropyridin-4-yl)-11,11-difluoro-8-hydroxy-3-methyl-3,4,8,9,10,11-hexahydro-1H-pyrido[4′,3′:3,4]pyrazolo[1,5-a]azepine-2(7H)-carboxamide] | 11 | 
18 | C[C@@H]1Cc2nn3c(c2CN1C(=O)Nc1ccc(F)c(C#N)c1)C(F)(F)CC(O)(CF)CC3 (single isomer, unassigned) [Example 128, (3R,9R*)-N-(3-Cyano-4-fluorophenyl)-11,11-difluoro-9-(fluoromethyl)-9-hydroxy-3-methyl-3,4,8,9,10,11-hexahydro-1H-pyrido[4′,3′:3,4]pyrazolo[1,5-a]azepine-2(7H)-carboxamide] | 1 | 
19 | C[C@@H]1Cc2nn3c(c2CN1C(=O)Nc1ccc(F)c(C#N)c1)C(F)(F)CC[C@H](O)C3 [Example 71, (3R,8 S)-N-(3-Cyano-4-fluorophenyl)-11,11-difluoro-8-hydroxy-3-methyl-3,4,8,9,10,11-hexahydro-1H-pyrido[4′,3′:3,4]pyrazolo[1,5-a]azepine-2(7H)-carboxamide] | 2 | 
20 | C[C@@H]1Cc2nn3c(c2CN1C(=O)Nc1ccnc(Br)c1F)C(F)=CC(O)CC3 (single isomer, unassigned) [Example 123, (3R,9R*)-N-(2-Bromo-3-fluoropyridin-4-yl)-11-fluoro-9-hydroxy-3-methyl-3,4,8,9-tetrahydro-1H-pyrido[4′,3′:3,4]pyrazolo[1,5-a]azepine-2(7H)-carboxamide] | 18 | 
21 | N#CCC1(O)CCC(F)(F)c2c3c(nn2C1)CCN(C(=O)Nc1ccc(F)c(C#N)c1)C3 (centres unmarked) [Example 40, N-(3-Cyano-4-fluorophenyl)-8-(cyanomethyl)-11,11-difluoro-8-hydroxy-3,4,8,9,10,11-hexahydro-1H-pyrido[4′,3′:3,4]pyrazolo[1,5-a]azepine-2(7H)-carboxamide] | 13 | 
22 | C#CC1(O)CCC(F)(F)c2c3c(nn2C1)CCN(C(=O)Nc1ccc(F)c(C#N)c1)C3 (centres unmarked) [Example 58, N-(3-Cyano-4-fluorophenyl)-8-ethynyl-11,11-di fluoro-8-hydroxy-3,4,8,9,10,11-hexahydro-1H-pyrido[4′,3′:3,4]pyrazolo[1,5-a]azepine-2(7H)-carboxamide] | 37 | 
23 | CC(=O)NCC1CCC(F)(F)c2c3c(nn2C1)CCN(C(=O)Nc1ccc(F)c(C#N)c1)C3 (centres unmarked) [Example 49] | 33 | 

Reference: patent US20220235051A1, “DI-FLUORO AZEPANES AS HBV CAPSID ASSEMBLY MODULATORS” (priority 2019, published 2022)
